Source: article PMC7882696, “Co-production of Xylooligosaccharides and Xylose From Poplar Sawdust by Recombinant Endo-1,4-β-Xylanase and β-Xylosidase Mixture Hydrolysis” (Frontiers in Bioengineering and Biotechnology, 2021)

Tests used:
Type in all cases: biochemical, Dictyoglomus thermophilum
Xln-DT [1] = tested on: T1, Xln-DT; assay: pNP release at […] nm, Michaelis-Menten; details: 50 mM sodium phosphate pH 6.0, optimal temperature
T1 construct: recombinant, pET-28a-xln-DT in E. coli BL21(DE3), heat treatment and Ni-NTA; ~55 kDa on SDS-PAGE

Xln-DT [2] = tested on: T1, Xln-DT; assay: xylose release, Michaelis-Menten; details: 0.2-10 g/L substrate
Source text: xylose release, Michaelis-Menten on Xln-DT

Xln-DT [3] = tested on: T1, Xln-DT; assay: glucose release, Michaelis-Menten; details: 0.2-10 g/L substrate
Source text: glucose release, Michaelis-Menten on Xln-DT

With `O=[N+]([O-])c1ccc(O[C@@H]2O[C@H](CO)[C@@H](O)[C@H](O)[C@H]2O)cc1` [pNPG] the Km (Xln-DT [1]) was 3670 µM.
`OC1OC[C@@H](O[C@@H]2OC[C@@H](O)[C@H](O)[C@H]2O)[C@H](O)[C@H]1O` (some centres unmarked) [X2, Xylobiose] was tested, and the Km (Xln-DT [2]) was 930 µM.
`OC[C@H]1O[C@@H](O[C@H]2[C@H](O)[C@@H](O)C(O)O[C@@H]2CO)[C@H](O)[C@@H](O)[C@@H]1O` (some centres unmarked) [Cellobiose] showed a Km (Xln-DT [3]) of 11000 µM.
Work on `O=[N+]([O-])c1ccc(O[C@@H]2O[C@@H](CO)[C@H](O)[C@H]2O)cc1` [pNPA] yielded a Km (Xln-DT [1]) of 1020 µM.
`O=[N+]([O-])c1ccc(O[C@@H]2OC[C@@H](O)[C@H](O)[C@H]2O)cc1` [pNPX] gave a Km (Xln-DT [1]) of 1660 µM.
